Test results reported in patent US20130269064A1, “INSECTICIDAL COMPOUNDS” (SYNGENTA PARTICIPATIONS AG, priority 2010, published 2013).

Tests used:
Format in all cases: in vivo
Diabrotica balteata = Diabrotica balteata (corn root worm) artificial diet test; details: 120 h, 200 ppm (concentration in well 18 ppm), L2 larvae, 5 days, larval mortality and growth regulation
Experimental: Diabrotica balteata (Corn Root Worm): A 24-well microtiter plate (MTP) with artificial diet was treated with test solutions at an application rate of 200 ppm (concentration in well 18 ppm) by pipetting. After drying, the MTP's were infested with larvae (L2) (6-10 per well). After an incubation period of 5 days, samples were checked for larval mortality, and growth regulation.

Heliothis virescens = Heliothis virescens (tobacco budworm) egg/artificial diet test; details: 96 h, 200 ppm (concentration in well 18 ppm), eggs 0-24 h old on artificial diet, 4 days, egg mortality, larval mortality, growth regulation
Experimental: Heliothis virescens (Tobacco Budworm): Eggs (0-24 h old) were placed in 24-well microtiter plate on artificial diet and treated with test solutions at an application rate of 200 ppm (concentration in well 18 ppm) by pipetting. After an incubation period of 4 days, samples were checked for egg mortality, larval mortality and growth regulation.

Spodoptera littoralis = Spodoptera littoralis (Egyptian cotton leafworm) cotton leaf disc test; details: foliar, 72 h, 200 ppm sprayed on cotton leaf discs, 5 L1 larvae, mortality, feeding behaviour, growth regulation 3 DAT
From the text: Spodoptera littoralis (Egyptian Cotton Leafworm): Cotton leaf discs were placed on agar in a 24-well microtiter plate and sprayed with test solutions at an application rate of 200 ppm. After drying, the leaf discs were infested with 5 L1 larvae. The samples were checked for mortality, feeding behaviour, and growth regulation 3 days after treatment (DAT).

Plutella xylostella = Plutella xylostella (diamond back moth) artificial diet test; details: 144 h, 200 ppm (concentration in well 18 ppm), L2 larvae, 6 days, larval mortality and growth regulation
Experimental: Plutella xylostella (Diamond Back Moth): A 24-well microtiter plate (MTP) with artificial diet was treated with test solutions at an application rate of 200 ppm (concentration in well 18 ppm) by pipetting. After drying, the MTP's were infested with L2 larvae (7-12 per well). After an incubation period of 6 days, samples were checked for larval mortality and growth regulation.

Tetranychus urticae = Tetranychus urticae (two-spotted spider mite) bean leaf disc test; details: foliar, 192 h, 200 ppm sprayed on bean leaf discs, mixed ages, 8 days, egg, larval and adult mortality
From the text: Tetranychus urticae (Two-Spotted Spider Mite): Bean leaf discs on agar in 24-well microtiter plates were sprayed with test solutions at an application rate of 200 ppm. After drying, the leaf discs are infested with mite populations of mixed ages. 8 days later, discs are checked for egg mortality, larval mortality, and adult mortality.

Measured: pest or weed control at 200 ppm

Cn1nc(C(F)(F)C(F)(F)F)c(C(F)(F)F)c1NC(=O)c1cccc(NC(=O)c2ccccc2F)c1F [Compound B1]
≥ 80%: Diabrotica balteata | Heliothis virescens | Spodoptera littoralis | Plutella xylostella

Cn1nc(C(F)(F)C(F)(F)F)c(C(F)(F)F)c1NC(=O)c1cccc(NC(=O)c2ccccc2Cl)c1F [Compound B3]
≥ 80%: Diabrotica balteata | Heliothis virescens | Spodoptera littoralis | Plutella xylostella

Cn1nc(C(F)(F)C(F)(F)F)c(C(F)(F)F)c1NC(=O)c1cccc(NC(=O)c2ccc(C#N)cc2)c1F [Compound B4]
≥ 80%: Diabrotica balteata | Heliothis virescens | Spodoptera littoralis | Tetranychus urticae | Plutella xylostella

Cn1nc(C(F)(F)C(F)(F)F)c(C(F)(F)F)c1NC(=O)c1cccc(NC(=O)c2ccc([N+](=O)[O-])cc2)c1F [Compound B5]
≥ 80%: Diabrotica balteata | Heliothis virescens | Spodoptera littoralis | Tetranychus urticae | Plutella xylostella

Cc1ccc(C(=O)Nc2cccc(C(=O)Nc3c(C(F)(F)F)c(C(F)(F)C(F)(F)F)nn3C)c2F)cc1 [Compound B6]
≥ 80%: Diabrotica balteata | Heliothis virescens | Spodoptera littoralis | Plutella xylostella

Cn1nc(C(F)(F)C(F)(F)F)c(C(F)(F)F)c1NC(=O)c1cccc(NC(=O)c2ccc(F)cc2)c1F [Compound B17]
≥ 80%: Diabrotica balteata | Heliothis virescens | Spodoptera littoralis | Tetranychus urticae | Plutella xylostella

Cn1nc(C(F)(F)C(F)(F)F)c(C(F)(F)F)c1NC(=O)c1cccc(NC(=O)c2cccc(F)c2F)c1F [Compound B21]
≥ 80%: Diabrotica balteata | Heliothis virescens | Spodoptera littoralis | Plutella xylostella

Cn1nc(C(F)(F)C(F)(F)F)c(C(F)(F)F)c1NC(=O)c1cccc(NC(=O)c2ccc(F)cc2F)c1F [Compound B22]
≥ 80%: Diabrotica balteata | Heliothis virescens | Spodoptera littoralis | Plutella xylostella

Cc1ccccc1C(=O)Nc1cccc(C(=O)Nc2c(C(F)(F)F)c(C(F)(F)C(F)(F)F)nn2C)c1 [Compound D2]
≥ 80%: Diabrotica balteata | Heliothis virescens | Spodoptera littoralis | Plutella xylostella

Cn1nc(C(F)(F)C(F)(F)F)c(C(F)(F)F)c1NC(=O)c1cccc(NC(=O)c2ccc(C#N)cc2)c1 [Compound D4]
≥ 80%: Diabrotica balteata | Tetranychus urticae

Cn1nc(C(F)(F)C(F)(F)F)c(C(F)(F)F)c1NC(=O)c1cccc(NC(=O)c2ccc([N+](=O)[O-])cc2)c1 [Compound D5]
≥ 80%: Diabrotica balteata | Heliothis virescens | Spodoptera littoralis | Plutella xylostella

Cc1cc(F)ccc1C(=O)Nc1cccc(C(=O)Nc2c(C(F)(F)F)c(C(F)(F)C(F)(F)F)nn2C)c1 [Compound D7]
≥ 80%: Diabrotica balteata | Heliothis virescens | Spodoptera littoralis | Tetranychus urticae | Plutella xylostella

Cn1nc(C(F)(F)C(F)(F)F)c(C(F)(F)F)c1NC(=O)c1cccc(NC(=O)c2ccc(OC(F)(F)F)cc2)c1 [Compound D11]
≥ 80%: Diabrotica balteata | Heliothis virescens | Spodoptera littoralis | Plutella xylostella

Cn1nc(C(F)(F)C(F)(F)F)c(C(F)(F)F)c1NC(=O)c1cccc(NC(=O)c2ccc(F)c(C(F)(F)F)c2)c1 [Compound D12]
≥ 80%: Diabrotica balteata | Heliothis virescens

Cn1nc(C(F)(F)C(F)(F)F)c(C(F)(F)F)c1NC(=O)c1cccc(NC(=O)c2ccccc2OC(F)(F)F)c1 [Compound D14]
≥ 80%: Diabrotica balteata

Cn1nc(C(F)(F)C(F)(F)F)c(C(F)(F)F)c1NC(=O)c1cccc(NC(=O)c2ccccc2C(F)(F)F)c1 [Compound D18]
≥ 80%: Diabrotica balteata | Heliothis virescens | Spodoptera littoralis

Cn1nc(C(F)(F)C(F)(F)F)c(C(F)(F)F)c1NC(=O)c1cccc(NC(=O)c2cc(C(F)(F)F)ccc2F)c1 [Compound D23]
≥ 80%: Diabrotica balteata | Heliothis virescens | Spodoptera littoralis

Cc1cc(C#N)ccc1C(=O)Nc1cccc(C(=O)Nc2c(C(F)(F)F)c(C(F)(F)C(F)(F)F)nn2C)c1 [Compound D24]
≥ 80%: Diabrotica balteata | Spodoptera littoralis | Tetranychus urticae | Plutella xylostella

Cc1ccccc1C(=O)Nc1cc(C(=O)Nc2c(C(F)(F)F)c(C(F)(F)C(F)(F)F)nn2C)ccc1Cl [Compound E2]
≥ 80%: Spodoptera littoralis

Cn1nc(C(F)(F)C(F)(F)F)c(C(F)(F)F)c1NC(=O)c1ccc(Cl)c(NC(=O)c2ccccc2Cl)c1 [Compound E3]
≥ 80%: Diabrotica balteata | Heliothis virescens | Spodoptera littoralis | Plutella xylostella

Cn1nc(C(F)(F)C(F)(F)F)c(C(F)(F)F)c1NC(=O)c1ccc(Cl)c(NC(=O)c2ccc(C#N)cc2)c1 [Compound E4]
≥ 80%: Diabrotica balteata | Heliothis virescens | Spodoptera littoralis | Plutella xylostella

Cn1nc(C(F)(F)C(F)(F)F)c(C(F)(F)F)c1NC(=O)c1ccc(Cl)c(NC(=O)c2ccc([N+](=O)[O-])cc2)c1 [Compound E5]
≥ 80%: Diabrotica balteata | Heliothis virescens | Plutella xylostella

Cc1cc(F)ccc1C(=O)Nc1cc(C(=O)Nc2c(C(F)(F)F)c(C(F)(F)C(F)(F)F)nn2C)ccc1Cl [Compound E7]
≥ 80%: Diabrotica balteata | Heliothis virescens | Spodoptera littoralis | Tetranychus urticae | Plutella xylostella

Cn1nc(C(F)(F)C(F)(F)F)c(C(F)(F)F)c1NC(=O)c1ccc(Cl)c(NC(=O)c2ccc([N+](=O)[O-])cc2Cl)c1 [Compound E9]
≥ 80%: Diabrotica balteata | Tetranychus urticae

Cn1nc(C(F)(F)C(F)(F)F)c(C(F)(F)F)c1NC(=O)c1ccc(Cl)c(NC(=O)c2ccc(F)c(C(F)(F)F)c2)c1 [Compound E12]
≥ 80%: Diabrotica balteata

Cn1nc(C(F)(F)C(F)(F)F)c(C(F)(F)F)c1NC(=O)c1ccc(Cl)c(NC(=O)c2ccc(C(F)(F)F)cc2)c1 [Compound E13]
≥ 80%: Diabrotica balteata | Heliothis virescens

Cn1nc(C(F)(F)C(F)(F)F)c(C(F)(F)F)c1NC(=O)c1ccc(Cl)c(NC(=O)c2ccccc2)c1 [Compound E16]
≥ 80%: Diabrotica balteata | Heliothis virescens | Spodoptera littoralis | Plutella xylostella

Cn1nc(C(F)(F)C(F)(F)F)c(C(F)(F)F)c1NC(=O)c1ccc(Cl)c(NC(=O)c2ccc(F)cc2)c1 [Compound E17]
≥ 80%: Diabrotica balteata | Heliothis virescens | Spodoptera littoralis | Plutella xylostella

Cn1nc(C(F)(F)C(F)(F)F)c(C(F)(F)F)c1NC(=O)c1ccc(Cl)c(NC(=O)c2ccccc2C(F)(F)F)c1 [Compound E18]
≥ 80%: Diabrotica balteata

Cn1nc(C(F)(F)C(F)(F)F)c(C(F)(F)F)c1NC(=O)c1ccc(Cl)c(NC(=O)c2ccc(F)cc2Cl)c1 [Compound E19]
≥ 80%: Diabrotica balteata | Heliothis virescens | Spodoptera littoralis | Tetranychus urticae | Plutella xylostella

Cn1nc(C(F)(F)C(F)(F)F)c(C(F)(F)F)c1NC(=O)c1ccc(Cl)c(NC(=O)c2cccc(F)c2F)c1 [Compound E21]
≥ 80%: Diabrotica balteata | Heliothis virescens

Cc1cc(C#N)ccc1C(=O)Nc1cc(C(=O)Nc2c(C(F)(F)F)c(C(F)(F)C(F)(F)F)nn2C)ccc1Cl [Compound E24]
≥ 80%: Diabrotica balteata | Heliothis virescens | Spodoptera littoralis | Tetranychus urticae | Plutella xylostella

Cc1cc(C#N)ccc1C(=O)Nc1nc(C(=O)Nc2c(C(F)(F)F)c(C(F)(F)C(F)(F)F)nn2C)ccc1C#N [Compound F1]
≥ 80%: Spodoptera littoralis

Cn1nc(C(F)(F)C(F)(F)F)c(C(F)(F)F)c1NC(=O)c1ccc(C#N)c(NC(=O)c2ccncc2)n1 [Compound F2]
≥ 80%: Diabrotica balteata | Heliothis virescens | Tetranychus urticae | Plutella xylostella
